According to ChEMBL document CHEMBL1201862, “PubChem BioAssay data set” (2004):
The source made the active and inactive calls.

Experiments:
[1] = inhibitors of firefly luciferase expression or activity, dose response, H4 neuroglioma cells, luminescence (AID 1990); type: functional, cell-based
[2] = Luminescence Cell-Based Dose Response HTS to Identify Inhibitors of 5'UTR Stem-Loop Driven Prion Protein mRNA Translation in H4 Neuroglioblastoma Cells. [Related pubchem assays: 1827 (Project Summary), 1813 (Primary HTS)]; type: functional
[3] = inhibitors of SNCA 5'UTR-driven reporter translation, confirmation, H4 neuroglioma cells, luminescence (AID 1988); type: functional, cell-based
[4] = biological target: T1, Rac GTPase-activating protein 1 (Homo sapiens, UniProt Q9H0H5); test: MgcRacGAP GTPase-activating activity inhibitors, confirmation, biochemical, ADP Hunter fluorescence, primary and confirmatory (AID 624330); type: functional
T1 sequence (Q9H0H5 whole entry): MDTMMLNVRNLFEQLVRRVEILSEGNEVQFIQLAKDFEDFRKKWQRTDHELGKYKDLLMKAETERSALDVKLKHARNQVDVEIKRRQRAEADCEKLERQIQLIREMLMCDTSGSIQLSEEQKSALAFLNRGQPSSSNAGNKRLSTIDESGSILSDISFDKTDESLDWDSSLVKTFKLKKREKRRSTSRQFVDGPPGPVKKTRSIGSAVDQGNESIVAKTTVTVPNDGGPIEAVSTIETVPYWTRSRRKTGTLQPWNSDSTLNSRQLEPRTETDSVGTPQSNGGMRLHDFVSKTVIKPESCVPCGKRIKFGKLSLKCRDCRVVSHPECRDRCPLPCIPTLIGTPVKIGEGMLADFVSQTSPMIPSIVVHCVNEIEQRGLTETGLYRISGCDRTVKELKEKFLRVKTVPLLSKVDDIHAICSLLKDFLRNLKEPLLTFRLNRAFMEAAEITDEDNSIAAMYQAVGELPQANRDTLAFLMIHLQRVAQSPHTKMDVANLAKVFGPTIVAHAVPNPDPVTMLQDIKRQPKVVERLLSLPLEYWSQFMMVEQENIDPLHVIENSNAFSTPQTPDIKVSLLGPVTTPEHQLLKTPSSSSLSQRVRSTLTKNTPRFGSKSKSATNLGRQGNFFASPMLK

Cytochrome P450 2C19 = Cytochrome P450 2C19 (Homo sapiens, UniProt P33261); test: Cytochrome panel assay with activity outcomes. Panel member name: p450-cyp2c19 Compounds with AC50 equal or less than 10 uM are considered active; type: functional
Cytochrome P450 2C19, sequence (P33261 whole entry): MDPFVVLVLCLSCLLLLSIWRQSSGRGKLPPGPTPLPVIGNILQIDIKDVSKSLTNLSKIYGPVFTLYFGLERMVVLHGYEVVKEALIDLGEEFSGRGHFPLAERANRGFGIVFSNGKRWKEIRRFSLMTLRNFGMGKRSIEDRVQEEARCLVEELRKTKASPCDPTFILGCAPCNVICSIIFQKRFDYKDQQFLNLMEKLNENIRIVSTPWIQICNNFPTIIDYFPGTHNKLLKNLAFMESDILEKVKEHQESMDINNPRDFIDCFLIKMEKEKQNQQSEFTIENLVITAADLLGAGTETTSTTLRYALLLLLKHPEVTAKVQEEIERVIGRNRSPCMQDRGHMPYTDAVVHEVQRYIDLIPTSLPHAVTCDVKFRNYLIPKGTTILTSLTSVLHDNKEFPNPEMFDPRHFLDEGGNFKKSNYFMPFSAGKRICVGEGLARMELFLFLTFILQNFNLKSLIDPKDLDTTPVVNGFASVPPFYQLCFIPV

Cytochrome P450 2C9 = Cytochrome P450 2C9 (Homo sapiens, UniProt P11712)
Cytochrome P450 2C9, sequence (P11712 whole entry): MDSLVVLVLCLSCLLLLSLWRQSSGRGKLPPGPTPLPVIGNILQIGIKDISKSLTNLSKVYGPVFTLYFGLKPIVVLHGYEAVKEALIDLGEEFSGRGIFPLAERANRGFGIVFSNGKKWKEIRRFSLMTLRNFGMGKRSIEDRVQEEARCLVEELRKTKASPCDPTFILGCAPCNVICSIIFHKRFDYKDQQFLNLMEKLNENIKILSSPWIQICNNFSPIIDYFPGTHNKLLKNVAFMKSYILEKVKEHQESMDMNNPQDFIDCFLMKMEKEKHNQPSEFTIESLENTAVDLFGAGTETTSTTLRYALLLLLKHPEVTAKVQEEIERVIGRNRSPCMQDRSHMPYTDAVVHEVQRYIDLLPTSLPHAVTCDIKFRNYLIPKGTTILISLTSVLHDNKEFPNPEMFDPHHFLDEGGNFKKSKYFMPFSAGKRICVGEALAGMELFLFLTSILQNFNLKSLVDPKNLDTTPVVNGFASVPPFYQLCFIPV

INS1 = test: beta cell apoptosis inhibitors, cytokine rescue, dose response, luminescence, retest (AID 449756); type: functional, cell-based; settings: Rattus norvegicus;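 further: cell death triggered by IL-1 beta plus TNF-alpha plus IFN-gamma mixture; protective hits raise ATP signal compared with cytokine alone wells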
[5] = HEp-2 cell cytotoxicity, dose response, cytotoxicity control for RSV inhibitor project, HTS (AID 2410); type: functional; settings: human respiratory syncytial virus
[6] = Luminescence Cell-Based Dose Retest to Confirm Inhibitors of Cancer Stem Cells. [Related pubchem assays (depositor defined):AID2717, AID2721]; type: functional; settings: Homo sapiens
[7] = NIH-3T3 fibroblast cytotoxicity, dose response, cytotoxicity control, cell-based, fluorescence, Alamar Blue, secondary assay (AID 2327); type: functional;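 further: NIH-3T3 mouse fibroblasts cultured with fluconazole at 8 µg/mL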
[8] = inhibitors of intracellular T. cruzi replication, confirmation, NIH3T3 host cells, beta-gal luminescence (AID 2044); type: functional, cell-based;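 further: intracellular parasites grown in NIH/3T3 mouse fibroblasts as host cells; luminescent beta-galactosidase reporter signal from transgenic T. cruzi replicating inside host cells; inhibitors lower the luminescence signal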
[9] = cytotoxicity toward NIH3T3 fibroblasts, dose response, counter-screen, cell-based, ATP luminescence, mouse fibroblasts (AID 2010); type: functional;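 further: cells exposed to compound for about 90 hours before reading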
[10] = C. albicans growth with fluconazole, confirmation, fluorescence, retest (AID 2467); type: functional, cell-based
Paired box protein Pax-8 = Paired box protein Pax-8 (Homo sapiens, UniProt Q06710); test: inhibitors of PAX8-driven TPO luciferase reporter, dose response, RMG-I cells, cherry-pick (AID 687027); type: functional, cell-based;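 further: luciferase reporter driven by Pax8 target thyroperoxidase promoter measured by SteadyGlo luminescence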
Paired box protein Pax-8, sequence (Q06710 whole entry): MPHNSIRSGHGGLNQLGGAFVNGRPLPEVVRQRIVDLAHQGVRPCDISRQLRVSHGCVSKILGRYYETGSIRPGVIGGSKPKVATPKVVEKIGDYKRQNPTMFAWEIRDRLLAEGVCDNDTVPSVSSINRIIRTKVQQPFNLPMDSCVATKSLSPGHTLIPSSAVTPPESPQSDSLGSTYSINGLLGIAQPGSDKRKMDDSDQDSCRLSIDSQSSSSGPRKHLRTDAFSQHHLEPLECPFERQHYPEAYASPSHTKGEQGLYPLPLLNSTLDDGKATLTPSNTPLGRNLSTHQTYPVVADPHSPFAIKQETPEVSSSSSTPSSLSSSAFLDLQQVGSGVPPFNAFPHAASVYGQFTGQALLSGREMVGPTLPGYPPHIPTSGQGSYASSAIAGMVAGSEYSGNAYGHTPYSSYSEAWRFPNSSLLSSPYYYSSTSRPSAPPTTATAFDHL

In the case of `COc1cccc(C(=O)Nc2cccc(OCC(=O)O)c2)c1`, the EC50 [1] is reported as > 120 µM (not active), the EC50 [2] is reported as > 120 µM (not active) and the EC50 [3] is reported as 25.9 µM (active).
In the case of `O=C(Nc1cc(Br)c(O)c(Br)c1)c1cccc(NC(=O)c2ccco2)c1`, the IC50 [4] is reported as 95.2 µM (active).
In the case of `COC(=O)C1=C(CSc2nc3ccccc3o2)NC(=O)NC1c1cc(C)ccc1C` (stereo unspecified), the EC50 [1] is reported as > 120 µM (not active), the EC50 [2] is reported as > 120 µM (not active) and the EC50 [3] is reported as > 120 µM (not active).
For `Cc1cccc(NC(=O)c2ccccc2OCC(=O)c2ccc(F)cc2)c1`, the EC50 [1] was > 120 µM (not active), the EC50 [2] was > 120 µM (not active) and the EC50 [3] was > 120 µM (not active).
In the case of `CCCCN1C(=O)/C(=C/c2ccc(N(C)C)cc2)C(=O)N(Cc2ccco2)C1=O`, the AC50 (Cytochrome P450 2C19; read-out: AC50) is reported as 31.6 µM (inconclusive) and the AC50 (Cytochrome P450 2C9) is reported as 35.5 µM (inconclusive).
With `CN(C)S(=O)(=O)c1cccc(NC2=NN=C(c3ccccc3)CS2)c1` the AC50 (INS1) was 7.27 µM (active).
For `COc1cccc(Nc2nc(-c3cccs3)nc3ccccc23)c1`, the CC50 [5] was 13.9 µM (active) and the AC50 [6] was 3.42 µM (active).
With `O=C(NNC(=O)c1ccccc1O)c1ccc(Cl)cc1` the AC50 (Cytochrome P450 2C9) was 20 µM (inconclusive).
For `CN(C)S(=O)(=O)c1ccc(N2C(=O)CC2(/C=C/c2ccccc2)C(=O)NC2CCCC2)cc1` (stereo unspecified), the EC50 [1] was > 120 µM (not active), the EC50 [2] was > 120 µM (not active) and the EC50 [3] was > 120 µM (not active).
For `COc1ccccc1N1CCN(S(=O)(=O)CCNC(=O)c2cc(OC)c(OC)c(OC)c2)CC1`, the EC50 [1] was > 120 µM (not active), the EC50 [2] was > 120 µM (not active) and the EC50 [3] was 10.6 µM (active).
For `Cn1cnc2cc(NCc3ccccc3O)ccc21`, the IC50 [4] was 93.9 µM (active).
In the case of `O=C(NC1CC1)c1ccc(-c2nc3ccccc3s2)s1`, the EC50 [1] is reported as 4.13 µM (active), the EC50 [2] is reported as 7.52 µM (active) and the EC50 [3] is reported as 13.6 µM (inconclusive).
For `Cc1ccc(S(=O)(=O)[N-]C2=C([n+]3ccn(CCC(C)C)c3)C(=O)c3ccccc3C2=O)cc1`, the AC50 (INS1) was 5.8 µM (active).
With `O=c1c2sc3ccccc3c2[nH]c(=S)n1CCN1CCOCC1` the IC50 [4] was 91.3 µM (active).
For `CCC1CSC(Nc2ccc(C(=O)/C=C/c3ccc(Br)cc3)cc2)=N1` (stereo unspecified), the AC50 [6] was 2 µM (active).
In the case of `COc1ccc(CCNCCN2CCOCC2)cc1`, the IC50 [4] is reported as 77.1 µM (active).
With `Cc1nc(S(=O)(=O)NC2CCCCC2)c(C#N)c(C)c1Cl` the AC50 (Cytochrome P450 2C9) was 28.2 µM (inconclusive).
In the case of `O=[N+]([O-])c1ccc(CSCc2ccc(Cl)cc2)cc1`, the AC50 (Cytochrome P450 2C9) is reported as 7.94 µM (inconclusive).
With `CCN1CCN(C(=O)c2ccc(CSc3ccc(C)cc3)cc2)CC1` the EC50 [7] was > 150 µM (inactive) and the AC50 [6] was < 0.16 µM (active).
In the case of `Cc1c(C(=O)NCc2ccc3c(c2)OCO3)oc2ccc(S(=O)(=O)N3CCCCCC3)cc12`, the EC50 [1] is reported as 14.9 µM (active), the EC50 [2] is reported as 15 µM (active) and the EC50 [3] is reported as 25.5 µM (active). For the same molecule, the EC50 [8] was 0.775 µM (active) and the EC50 [9] was > 60 µM (not active).
In the case of `CN(C)N1C(N)=C(C#N)C(c2cccc3ccccc23)C2=C1CC(c1ccccc1)CC2=O` (stereo unspecified), the AC50 [6] is reported as 1.15 µM (active).
For `Cc1ccccc1-[n+]1c(-c2ccccc2)cc(-c2ccccc2)cc1-c1ccccc1.[O-][Cl+3]([O-])([O-])[O-]`, the EC50 [7] was 36.3 µM (active), the EC50 [10] was 0.21 µM (active) and the AC50 (INS1) was 2.26 µM (active).
In the case of `CN(Cc1c(F)cccc1Cl)C(=O)c1cc2ccccc2o1`, the AC50 (INS1) is reported as > 260 µM (inactive).
With `CCOc1ccccc1CN1CCC(N2CCOCC2)CC1` the IC50 [4] was 83 µM (active).
For `C=CC[n+]1c(/C=C/c2ccc(OC(C)=O)c(OC)c2)ccc2ccccc21`, the IC50 [4] was 61.2 µM (active).
With `CC(Cc1ccccc1)NC(=O)CSc1nc2nc3c(cc2c(=O)n1-c1ccccc1)COC(C)(C)C3` (stereo unspecified) the AC50 (Cytochrome P450 2C19; read-out: AC50) was 35.5 µM (inconclusive) and the AC50 (Cytochrome P450 2C9) was 15.8 µM (inconclusive).
For `c1ccc(CSc2nnc(-c3sccc3-n3cccc3)o2)cc1`, the AC50 (Cytochrome P450 2C9) was 39.8 µM (inconclusive).
With `COc1ccc(N2CCCC2)c(NC(=O)COc2ccccc2Cl)c1` the EC50 [1] was 13.9 µM (active), the EC50 [2] was > 120 µM (not active) and the EC50 [3] was 13.1 µM (active).
For `Cn1c(=S)c2nc(SCCN3CCCC3)[nH]c2n(C)c1=O`, the AC50 (Cytochrome P450 2C9) was 3.16 µM (inconclusive).
For `Nc1cc2c(nc3c4ccccc4c(N)cc3[n+]2-c2cccc3ccccc23)c2ccccc12.Nc1cc2c(nc3c4ccccc4ccc3[n+]2-c2cccc3ccccc23)c2ccccc12`, the AC50 (Cytochrome P450 2C9) was 2.51 µM (inconclusive).
In the case of `Cc1ccc2cc(CCNC(=O)c3ccc(Br)o3)c(O)nc2c1`, the AC50 (Cytochrome P450 2C9) is reported as 10 µM (inconclusive).
For `COc1cc2cc(-c3ccc(O)cc3O)nc(C)c2cc1OC`, the IC50 [4] was 29.9 µM (active).
For `Nc1nc(-c2ccc(NC(=O)c3ccco3)cc2)cs1`, the EC50 [2] was 11.7 µM (inconclusive) and the EC50 [3] was 8.2 µM (inconclusive).
For `CC(C)c1nnc(-c2ccc(Cl)cc2)c(N(C)C)n1`, the AC50 (Cytochrome P450 2C9) was 10 µM (inconclusive).
For `O=c1[nH]c(=O)n(Cc2ccco2)c2c1C(C(F)(F)F)(C(F)(F)F)NC(c1ccc(F)cc1)=N2`, the AC50 (INS1) was 3.11 µM (active).
In the case of `CN(C)CCCN(C(=O)COc1ccc(Cl)cc1)c1nc2cc3c(cc2s1)OCO3`, the AC50 (INS1) is reported as 14.2 µM (active).
For `COc1ccc(/C=C/c2nc3cc(-c4ccccc4)ccc3o2)cc1O`, the CC50 [5] was 36.3 µM (active) and the AC50 [6] was 4.06 µM (active).
In the case of `CNc1oc(-c2ccc(Cl)cc2)nc1P(=O)(c1ccccc1)c1ccccc1`, the AC50 [6] is reported as 7.13 µM (active).
With `O=C(COCc1cc(-c2ccc3c(c2)OCO3)on1)N1CCN(c2cccc(C(F)(F)F)c2)CC1` the AC50 [6] was 1.51 µM (active).
For `CCCCCSc1nnc(C)c(O)n1`, the AC50 (Cytochrome P450 2C19; read-out: AC50) was 39.8 µM (inconclusive) and the AC50 (Cytochrome P450 2C9) was 8.91 µM (inconclusive).
With `CCCCN1C(=O)C(NC(=O)c2cccnc2)(C(F)(F)F)C2=C1CC(C)(C)CC2=O` (stereo unspecified) the AC50 (Cytochrome P450 2C19) was “inconclusive” and the AC50 (Cytochrome P450 2C9) was 35.5 µM (inconclusive).
With `Cc1cccc(C(=O)NN(C)c2nc(-c3ccccc3)nnc2C(F)(F)F)c1` the AC50 (Cytochrome P450 2C19; read-out: AC50) was 0.708 µM (inconclusive) and the AC50 (Cytochrome P450 2C9) was 0.316 µM (inconclusive).
With `COc1ccc(NC(=O)c2cc3ccc(O)cc3o/c2=N\O)cc1` the AC50 [6] was 5.22 µM (active) and the IC50 [4] was 42 µM (active).
For `C[C@@H]1CN([C@@H](C)CO)C(=O)c2cc(NC(=O)NC3CCCCC3)ccc2O[C@@H](C)CCCCO[C@H]1CN(C)Cc1ccc(C(F)(F)F)cc1`, the AC50 (Paired box protein Pax-8) was 11.5 µM (active).
For `C[C@@H]1CN([C@H](C)CO)C(=O)c2c(c3ccccc3n2C)-c2ccccc2CO[C@@H]1CN(C)C`, the AC50 (Paired box protein Pax-8) was 66.1 µM (active).
In the case of `C[C@@H]1CN([C@H](C)CO)C(=O)c2cc(NC(=O)Nc3ccc(F)cc3)ccc2O[C@@H](C)CCCCO[C@H]1CN(C)C(=O)Nc1ccc(F)cc1`, the AC50 (Paired box protein Pax-8) is reported as 10.8 µM (active).
With `O=[N+]([O-])c1ccc(C2CCCC/C2=N/OCc2ccc(F)cc2)c([N+](=O)[O-])c1` (stereo unspecified) the EC50 [7] was > 160 µM (inactive), the EC50 [10] was 21.6 µM (active) and the EC50 [8] was 0.492 µM (active). The EC50 [9] was > 60 µM (not active).
In the case of `C/C(=N\NC(=O)c1ccc(NS(=O)(=O)c2cccs2)cc1)c1ccccn1`, the AC50 (INS1) is reported as 3.08 µM (active).
For `C/C(=C\C(=O)c1ccccc1)Nc1ccc(O)cc1`, the IC50 [4] was 20.2 µM (active).
In the case of `C=CCNC(=S)N/N=C/c1ccc(-c2ccc(OC)cc2)o1`, the EC50 [7] is reported as > 150 µM (inactive), the EC50 [10] is reported as > 38 µM (not active) and the EC50 [8] is reported as 1.76 µM (active). For the same molecule, the EC50 [9] was > 60 µM (not active).
